Here are results for one molecule from US20090023186A1, “USE OF VALPROIC ACID FOR ENHANCING PRODUCTION OF RECOMBINANT PROTEINS IN MAMMALIAN CELLS” (EXCELLGENE SA, priority 2007, published 2009).

The subject of the test is HEK293E cells. Nature of the test: Transient IgG expression, batch titer by ELISA, VPA concentration series (Example 1). The class given is cell-based, Human. Conditions: for Fold increase over control / Batch titer: IgG, day 5 after transfection; for Batch titer: 37° C. How it is done: 10 million suspension-adapted HEK293E cells were resuspended in 0.5 ml of Ex-Cell 293 HEK 293 serum-free medium with 4 mmol/l L-glutamine (Cat. No. 14571C-1000 M; Lot No. 6A0093; SAFC Biosciences, Lenexa, Kans., USA, “Ex-Cell” medium; note: “Ex-Cell” medium-as used herein-refers to a medium comprising 4 mmol/l L-glutamine) in a 50-ml filter tube each (TPP AG, Trasadingen, Switzerland; Cat. No. 87050, Lot 20050174). In a separate set, 10 million suspension-adapted CHO DG44 cells were resuspended in 0.5 ml of ProCHO5 serum-free medium with 4 mmol/[…] hypoxanthine and 0.194 g/l thymidine (BioWhittaker (Lonza), Belgium; Cat. No. BE12-[…]; Lot No. 7 MB0040; “ProCHO5” medium; note: “ProCHO5” medium-as used herein-refers to a medium comprising 4 mmol/[…] hypoxanthine and 0.194 g/l thymidine) in a 50-ml filter tube each (TPP AG, Trasadingen, Switzerland; Cat. No. 87050, Lot 20050174). Then 12.5 μg plasmid DNA at a concentration of 1 μg/μl was added in each tube with the following composition 50% (6.25 μg) p-LC (SEQ ID NO: 1) 50% (6.25 μg) p-HC (SEQ ID NO: 3). Plasmid p-LC comprises the genetic information for the production of the light chain of an IgG antibody, plasmid p-HC comprises the genetic information for the production of the heavy chain of an IgG antibody. The particular vector constructs used in the present invention can also be obtained from the inventors. The inventors can be contacted via e-mail at […]. Moreover, commercial services do exist that produce any desired nucleotide sequence even comprising several kilobase pairs including complete expression cassettes in plasmid backgrounds (e.g., Invitrogen, Carlsbad, USA; Geneart, Germany.) Thus, providing the genetic sequence information of the plasmids should enable one of ordinary skill in the art to order the plasmids of the present invention at one of the commercial services listed. After shortly mixing the DNA with the cells by gentle shaking, 25 μg of 25-kd linear polyethyleneimine (“PEI”; Polysciences, Eppelheim, Germany; [2]) were added at a concentration of 1 μg/μl to each of the tubes. After shortly mixing by gentle shaking, the filter tubes containing the cells together with the DNA and PEI were transferred into an orbital shaker (Kühner Shaker Cabinet ISF-4-W, “Kühner shaker”, Kühner AG, Birsfelden, Switzerland), and the cells were incubated for 4 hours at 37° C. in a 5% CO2 atmosphere under shaking at 180 rpm. After that time, 4.5 ml of Ex-Cell medium were added to each of the filter tubes containing HEK 293 cells and 4.5 ml of Pro-CHO5 were added to each of the filter tubes containing CHO DG44 cells. Then, valproic acid was added to each of the tubes at the corresponding final concentration. The cells then were returned into the Kühner shaker and incubated at 37° C. in a 5% CO2 atmosphere under shaking at 180 rpm. […] The ELISA was performed as published in prior art. In short, Goat anti-human kappa light chain IgG (Biosource) was used for coating the ELISA-plates, and with AP-conjugated goat anti-human gamma chain IgG (Biosource) the synthesized IgG1 was detected. NPP was used as a substrate for the alkaline phosphatase. Absorption was measured at 405 nm against 490 nm using a microplate reader (SPECTRAmaxTM340; Molecular Devices, Palo Alto, Calif., USA).

Regarding `CCCC(CCC)C(=O)O` [VPA, valproic acid], the “Fold increase over control” value (1.3 mmol/l final VPA) worked out at 2.2 fold; the “Fold increase over control” value (2.5 mmol/l final VPA) worked out at 4.1 fold; the “Fold increase over control” value (4 mmol/l final VPA) was 5.3 fold; the “Fold increase over control” value (5 mmol/l final VPA) amounted to 4.3 fold; the “Fold increase over control” value (7.5 mmol/l final VPA) was 1.8 fold; the “Fold increase over control” value (11.3 mmol/l final VPA) is reported as 0.9 fold. The Batch titer runs as follows: (1.3 mmol/l final VPA) 33.0 ± 4.3 mg/L; (2.5 mmol/l final VPA) 61.8 ± 5.7 mg/L; (4 mmol/l final VPA) 79.5 ± 3.6 mg/L; (5 mmol/l final VPA) 64.5 ± 6.5 mg/L; (7.5 mmol/l final VPA) 27.0 ± 3.1 mg/L; (11.3 mmol/l final VPA) 13.5 ± 2.1 mg/L. Further, the optimal final concentration entry (for batch titer, HEK293E cells, day 5) is “around 4 mmol/l”.
